Laboratory results published in patent publication US20150072315A1, “Formulations and kit for biometric deposition of apatite on teeth” (Heraeus Kulzer GmbH, priority 2013, published 2015).

Tests used:
[1] = staining test for dentine-sealing effect (rhodamine, colorimetry)
Method: The components were produced as described in example 1.
After the application of the gels, a staining test was used to check if a dentine-sealing effect occurred. Acids that were insoluble at the requisite conditions were not tested further.
Principle of the staining test: The samples are measured by colorimetry on the coated and uncoated side after staining with 1% rhodamine solution using a Spectraflash 600 Plus two-channel spectrometer with the CIE L*a*b* system and aperture 3 mm X4SAV. The difference in colour is reported as the delta value (colour difference).
Tris buffer (pH value: 7.2 to 9.0) was used in the Ca gel. A sodium acetate buffer (pH value: 3.7 to 5.7) was used in the P gel.

[2] = solubility and appearance of pre-treatment, calcium and phosphate solutions made with the acid
Method: For component A containing phosphate ions, a solution containing 29.5 g NaH2PO4, 33 g Olaflur, and 27.0 g lactic acid was produced. […] A total of 24 ml of the solution and 6 g glycerol and 10 g of 300 Bloom pork rind gelatine were processed while heating to form a viscous solution. A small amount of liquid was placed in a template with a wall thickness of 500 μm and exposed to 2 bar of pressure. After solidification, the strips were removed from the template and cut into 1×1 cm squares.
For component B containing calcium ions, a calcium chloride solution containing 29.4 g calcium chloride dihydrate and 6.3 g lactic acid was prepared. […] The solution was topped up to 200 ml with de-ionized water. In order to produce the gel, 21.6 g of the solution and 8.24 g glycerol and 8 g calcium sulfate and 13.6 g 300 Bloom gelatine were mixed and heated. The liquid gel was then spread with a squeegee to a thickness of 1 mm or pressed in a template with a wall thickness of 1 mm. After solidification, the strips were cut into 1×1 cm squares. For the pre-treatment solution (mouthwash), a 0.1 mol Tris buffer was added to a 1 molar calcium chloride solution and the pH was adjusted to 9.0.

[3] = colour difference coated vs uncoated side after staining with 1% rhodamine solution, CIE L*a*b*
[4] = as E1, P gel combined with acetic acid-Ca gel

Row | SMILES | deposition after application of the kit [1] | Functional test (delta E) [1, 3] | also measured
1 | O=C1O[C@H]([C@@H](O)CO)C(O)=C1O [Ascorbic acid] | show deposition | 56.64 ± 9.85 | –
2 | N[C@@H](CC(=O)O)C(=O)O [Aspartic acid] | show deposition | 45.96 ± 2.63 | –
3 | O=C(O)CO [Glycolic acid] | show deposition | – | Functional test (delta E) [1, 4]: 35.32 ± 4.19
4 | CC(O)C(=O)O (stereo not drawn) [Lactic acid] | show deposition | 49.83 ± 4.02 | –
5 | O=C(O)CC(O)C(=O)O (stereo not drawn) [Malic acid] | show deposition | 42.41 ± 5.39 | solubility of the calcium salt of the acid [2]: sufficiently soluble; Pre-treatment solution: solubility/appearance ([2]; pH 8.5): precipitation; Pre-treatment solution: solubility/appearance ([2]; pH 9.02): pH 9.02 clear; Pre-treatment solution: solubility/appearance ([2]; pH 9.53): pH 9.53 clear
6 | O=C(O)c1ccccc1O [Salicylic acid] | – | – | solubility of the acid (merged cell spanning the solution columns) [2]: insoluble
7 | O=C(O)c1ccc(C(=O)O)c(C(=O)O)c1 [Trimellitic acid] | – | – | Functional test (delta E) [1, 4]: 42.05 ± 11.24; Ca gel solution: solubility/appearance [2]: precipitation
8 | O=C(O)C(CO)c1ccccc1 (stereo not drawn) [Tropic acid] | – | – | solubility of the acid (merged cell spanning the solution columns) [2]: insoluble
